{
  "source": "patent US20080248953A1",
  "about": "“Use of Bacteriocins For Promoting Plant Growth and Disease Resistance” (MCGILL UNIVERSITY, priority 2005, published 2008)",
  "assay_type_in_all_cases": "in vivo, Glycine max",
  "key": {"[1]": {"system": "total phenolic compounds", "test": "Total phenolics in soybean leaves (Folin-Ciocalteu)", "procedure": "(§1) Soybean (Glycine max L. Merr. cv. OAC Bayfield) seeds were surface sterilized in 10% bleach, rinsed several times with distilled water and then germinated and grown in Vermiculite™ (Holiday, Montreal) in a growth chamber under a 16 h/8 h (day/night) regime (natural light supplemented with high pressure sodium lamps to reach the appropriate daylight), at 25±1° C., until they reached vegetative cotyledon (VC) stage (Fehr and Caviness, 1977).\n(§2) Treatments of chitin hexamer and thuricin 17 were applied when the seedling reached the first trifoliate stage (˜2 weeks old). Chitin hexamer and thuricin 17 treatments were applied through cut stems, as described by Orozco-Cardenas and Ryan (1999). The plants were excised at the base of the stem with a sharp scalpel and promptly placed in 2 mL Eppendorff™ tubes containing 0.5 mL of 100 μmol L^−1 chitin hexamer [(GlcNAc)6], 0.5 mL of […] thuricin 17, and chitin hexamer+thuricin 17 mixed (1:1) solution in phosphate buffer (15 mM sodium phosphate, pH 6.5). The control plants were treated with phosphate buffer solution alone. […]\nTotal phenolic content was determined by the Folin-Ciocalteu method (Singleton and Rossi, 1965). […] After 3 min, 0.475 mL of 1 mol L^−1 Na2CO3 was added and after 1 h absorbance was measured. […] The total phenolic content was expressed as gallic acid equivalents (GAE) in mg g^−1 fresh weight (FW)."}, "[2]": {"system": "phenylalanine ammonia lyase (PAL)", "test": "PAL activity in soybean leaves after treatment", "procedure": "as §1\nas §2, with “alone. Once all the solution was taken up by the plants (4-6 h), they were immediately transferred to glass test tubes containing 20 mL distilled water. The plants were kept under constant white light (85 μmol·m^−2·s^−1).” for “alone.”\n(§3) Leaf samples (300 mg fresh weight) were extracted in 4 mL of buffer (50 mM Tris pH 8.5, 14.4 mmol L^−1 2-mercaptoethanol, 1% w/v insoluble polyvinyl-polypyrrorolidone) and centrifuged at 6,000 g for 10 min at 4° C. The total protein concentration in soluble enzyme extracts was determined using the Bradford (1976) assay.\n(§4) The method of Beaudoin-Eagan and Thorpe (1985) was used to estimate phenylalanine ammonia lyase (PAL) and tyrosine ammonia lyase (TAL) activities. […] The amounts of trans-cinnamic and p-coumaric acids formed were determined by measuring absorbance at 290 and 330 nm, respectively, against an identical mixture in which D-phenylalanine was substituted for L-phenylalanine and D-tyrosine for L-tyrosine. […]"}, "[3]": {"system": "catalase (CAT)", "test": "Catalase activity staining after PAGE", "details": "soybean leaves", "procedure": "(§5) Treatments of chitin hexamer and thuricin 17 were applied when the seedling reached the first trifoliate stage (˜2 weeks old). Chitin hexamer and thuricin 17 treatments were applied through cut stems, as described by Orozco-Cardenas and Ryan (1999). The plants were excised at the base of the stem with a sharp scalpel and promptly placed in 2 mL Eppendorff™ tubes containing 0.5 mL of 100 μmol L^−1 chitin hexamer [(GlcNAc)6], 0.5 mL of […] thuricin 17, and chitin hexamer+thuricin 17 mixed (1:1) solution in phosphate buffer (15 mM sodium phosphate, pH 6.5). The control plants were treated with phosphate buffer solution alone. Once all the solution was taken up by the plants (4-6 h), they were immediately transferred to glass test tubes containing 20 mL distilled water. The plants were kept under constant white light (85 μmol·m^−2·s^−1). Leaves were collected at 12, 24, 36, 48, 60 and 72 h after elicitor treatment, weighed, placed in plastic bags and stored immediately at −80° C.\nFor the catalase activity (CAT) staining after 12.5% PAGE, the gel was incubated with 3.2 mM H2O2 for 20 min, and a treatment with a solution containing 1% FeCl3 and 1% K3Fe(CN)6 for 10 min, as described by Racchi et al (2001)."}, "[4]": {"system": "peroxidase (POD)", "test": "POD activity in soybean leaves", "details": "72 h after treatment", "procedure": "as §1\nas §2, with “6.5).” for “6.5). The control plants were treated with phosphate buffer solution alone.”\nThe activity of peroxidase (POD) was assessed using the method of Chance and Maehly (1955). […] The reaction was started with addition of 20 μL of 40 mM H2O2 and the change in the absorbance at 470 nm was recorded for 1 min. The activity of peroxidase was calculated using an extinction coefficient for the tetraguaiacol of 26.6 mM^−1 cm^−1 at 470 nm. […]"}, "[5]": {"system": "superoxide dismutase (SOD)", "test": "SOD activity in soybean leaves", "procedure": "as §1, §2\nThe activity of superoxide dismutase (SOD) was determined by measuring its ability to inhibit the photoreduction of nitroblue tetrazolium (NBT) following the method of Giannopolitis and Ries (1977). […] Absorbance was recorded at 560 nm. […]"}, "[6]": {"system": "tyrosine ammonia lyase (TAL)", "test": "TAL activity in soybean leaves after treatment", "procedure": "as §1\nas §5, with “Leaves were collected at 12, 24, 36, 48, 60 and 72 h after elicitor treatment, weighed, placed in plastic bags and stored immediately at −80° C.” left out\nas §3, §4"}},
  "data": [
    {"smiles": "CC(=O)N[C@H]1[C@H](O[C@H]2[C@H](O)[C@@H](NC(C)=O)[C@H](O[C@H]3[C@H](O)[C@@H](NC(C)=O)C(O)O[C@@H]3CO)O[C@@H]2CO)O[C@H](CO)[C@@H](O[C@@H]2O[C@H](CO)[C@@H](O[C@@H]3O[C@H](CO)[C@@H](O[C@@H]4O[C@H](CO)[C@@H](O)[C@H](O)[C@H]4NC(C)=O)[C@H](O)[C@H]3NC(C)=O)[C@H](O)[C@H]2NC(C)=O)[C@@H]1O", "note": "(stereo partly drawn) [chitin hexamer, chitin hexamer [(GlcNAc)6]]", "values": [
      {"measurement": "total phenolics increase compared with the control", "setting": "[1]; 36 h after treatment", "result": 15.3, "unit": "%"},
      {"measurement": "total phenolics increase compared with the control", "setting": "[1]; 72 h after treatment", "result": 1.4, "unit": "%"},
      {"measurement": "PAL activity time course", "setting": "[2]; 12 to 72 h after treatment", "result": "increased continuously"},
      {"measurement": "PAL activity increase compared with control", "setting": "[2]; 60 h after treatment", "result": 8.4, "unit": "%"},
      {"measurement": "PAL activity greater than the control", "setting": "[2]; 72 h after treatment", "result": 18.1, "unit": "%"},
      {"measurement": "induction of CAT activity", "setting": "[3]", "result": "elicited increases"},
      {"measurement": "POD activity increase compared with control", "setting": "[4]", "result": 40.3, "unit": "%"},
      {"measurement": "induction of SOD activity", "setting": "[5]", "result": "not induced"},
      {"measurement": "SOD activity increase compared with control", "setting": "[5]; 48 h after treatment", "result": 24.9, "unit": "%"},
      {"measurement": "TAL activity time course", "setting": "[6]; 12 to 72 h after treatment", "result": "increased continuously"},
      {"measurement": "TAL activity increase compared with the control", "setting": "[6]; 48 h after treatment", "result": 18.8, "unit": "%"},
      {"measurement": "TAL activity increase compared with the control", "setting": "[6]; 72 h after treatment", "result": 23.8, "unit": "%"}
    ]}
  ]
}
